From US20250161308A1, “Methods of Treating Covid-Related Disorders” (priority 2022, published 2025)
Read-outs that look alike come from different tables or passages of the source. Where a SMILES comes first, the peptide text is derived from it. [ ]: non-standard residue; d: D form. The star is where a group is joined. Hexanoyl = CCCCCC(=O)*; Ahx = NCCCCCC(=O)O

Legend:
[1] = test system: pulmonary LPS-stimulated rats; assay: Immune cell infiltration in BALF, LPS acute pulmonary inflammation; assay type: in vivo, rat; conditions: rat, in vivo
[2] = test system: pulmonary LPS-stimulated rats; assay: Cytokine expression in BALF supernatant (multiplex immunoassay), LPS acute pulmonary inflammation; assay type: in vivo, rat; conditions: 3 mg/kg IP
[3] = test system: bleomycin-induced pulmonary fibrosis in C57BL/6 mice; assay: Bleomycin-induced pulmonary fibrosis; assay type: in vivo, mouse
Rat hippocampal neurons [4] = assay: Neurite outgrowth assay; assay type: cell-based
[5] = test system: Rat primary cortical neuron cultures; assay type: cell-based; conditions: for Significance of neuroprotection vs 1 uM LPS: 24 h LPS
[6] = test system: THP1-differentiated macrophages; assay type: cell-based, human; parameters: key to Significant reduction in IL-6 / Significant reduction in TNF-α / Significant reduction in IL-1β: NS: indicates a non-significant reduction in the indicated cytokine; +: indicates a p value<0.05 in Tukey post test; ++: indicates a p value<0.01 in Tukey post test; conditions: for Significant reduction in IL-1β / Significant reduction in IL-6 / Significant reduction in TNF-α: 24 hrs LPS
Rat hippocampal neurons [7] = assay: Synaptogenesis assay; assay type: cell-based
[8] = test system: LPS-induced cognitive deficit in CD-1 mice; assay: Rodent LPS model of brain inflammation, T-maze spontaneous alternation; assay type: in vivo, mouse; conditions: for Recovery (%) / Spontaneous alternation (%) Mean: LPS 250 μg/kg
[9] = 100 mg/kg po BID, right lung homogenate

C[C@@H]1C[C@H]2[C@@H]3CCC4=CC(=O)C=C[C@]4(C)[C@@]3(F)[C@@H](O)C[C@]2(C)[C@@]1(O)C(=O)CO [Dex, Dexamethasone]
Neutrophils in BALF, reduction vs disease control [1]: +++ (key: + = >5% reduction in cell count vs disease control; ++ = >25% reduction in cell count vs disease control; +++ = >75% reduction in cell count vs disease control) | Total Leukocytes in BALF, reduction vs disease control [1]: +++ (key: + = >5% reduction in cell count vs disease control; ++ = >25% reduction in cell count vs disease control; +++ = >75% reduction in cell count vs disease control) | CCL2, significant change in expression in BALF supernatant [2]: + (+ = Significant change in cytokine quantification, p < 0.05 by Student's T-test.) | CCL3, significant change in expression in BALF supernatant [2]: + (+ = Significant change in cytokine quantification, p < 0.05 by Student's T-test.) | CCL5, significant change in expression in BALF supernatant [2]: + (+ = Significant change in cytokine quantification, p < 0.05 by Student's T-test.) | CCL11, significant change in expression in BALF supernatant [2]: + (+ = Significant change in cytokine quantification, p < 0.05 by Student's T-test.) | CX3CL1, significant change in expression in BALF supernatant [2]: + (+ = Significant change in cytokine quantification, p < 0.05 by Student's T-test.) | CXCL1, significant change in expression in BALF supernatant [2]: + (+ = Significant change in cytokine quantification, p < 0.05 by Student's T-test.) | CXCL5, significant change in expression in BALF supernatant [2]: + (+ = Significant change in cytokine quantification, p < 0.05 by Student's T-test.) | CXCL10, significant change in expression in BALF supernatant [2]: + (+ = Significant change in cytokine quantification, p < 0.05 by Student's T-test.) | EGF, significant change in expression in BALF supernatant [2]: + (+ = Significant change in cytokine quantification, p < 0.05 by Student's T-test.) | IFN-γ, significant change in expression in BALF supernatant [2]: + (+ = Significant change in cytokine quantification, p < 0.05 by Student's T-test.) | IL-1α, significant change in expression in BALF supernatant [2]: + (+ = Significant change in cytokine quantification, p < 0.05 by Student's T-test.) | IL-1β, significant change in expression in BALF supernatant [2]: + (+ = Significant change in cytokine quantification, p < 0.05 by Student's T-test.) | IL-5, significant change in expression in BALF supernatant [2]: + (+ = Significant change in cytokine quantification, p < 0.05 by Student's T-test.) | IL-6, significant change in expression in BALF supernatant [2]: + (+ = Significant change in cytokine quantification, p < 0.05 by Student's T-test.) | IL-10, significant change in expression in BALF supernatant [2]: + (+ = Significant change in cytokine quantification, p < 0.05 by Student's T-test.) | IL-12p70, significant change in expression in BALF supernatant [2]: + (+ = Significant change in cytokine quantification, p < 0.05 by Student's T-test.) | IL-13, significant change in expression in BALF supernatant [2]: + (+ = Significant change in cytokine quantification, p < 0.05 by Student's T-test.) | IL-17A, significant change in expression in BALF supernatant [2]: + (+ = Significant change in cytokine quantification, p < 0.05 by Student's T-test.) | TNF-α, significant change in expression in BALF supernatant [2]: + (+ = Significant change in cytokine quantification, p < 0.05 by Student's T-test.)

Cc1ccc(=O)n(-c2ccccc2)c1 [Pirfenidone, reference compound]
Right Lung Weight, improvement versus disease control ([3]; 100 mg/kg po BID, day 21): + (+ => 5-25% improvement v disease control) | Collagen, improvement versus disease control [3, 9]: ++ (++ => 26-50% improvement v disease control) | TGF-Beta, improvement versus disease control [3, 9]: +++ (+++ => 51-100% improvement v disease control) | protection against bleomycin-induced increases in TGF-β (in words) ([3]; all doses, day 21): significantly protected against bleomycin-induced increases in TGF-β | protection against body weight loss (in words) ([3]; all treatment groups): did not protect against body weight loss

C[C@]12CCC(=O)C[C@@H]1CC[C@@H]1[C@@H]2CC[C@]2(C)[C@@H](O)CC[C@@H]12 [DHT, alpha-dihydrotestosterone, reference compound]
Significant increase in: Neurite length (Rat hippocampal neurons [4]): + (key: NS = not significant; + = p < 0.05; ++++ = p < 0.0001)

CCCCCC(=O)N[C@@H](Cc1ccc(O)cc1)C(=O)N[C@H](C(=O)NCCCCCC(N)=O)[C@@H](C)CC [A19 active metabolite, N-hexanoic-Tyr-Ile-(6)aminohexanoic amide] (Hexanoyl-Tyr-Ile-[Ahx]-NH2)
Significance of neuroprotection vs 1 uM LPS ([5]; 0.1 nM): +++ (+++ indicates p<0.001) | Significance of neuroprotection vs 1 uM LPS ([5]; 1 nM): ++ (++ indicates p<0.01) | Significance of neuroprotection vs 1 uM LPS ([5]; 10 nM): +++ (+++ indicates p<0.001) | Significance of neuroprotection vs 1 uM LPS ([5]; 100 nM): ++ (++ indicates p<0.01) | Significance of neuroprotection vs 1 uM LPS ([5]; 1 μM): ++ (++ indicates p<0.01) | protection of primary neurons from LPS-stimulated inflammatory toxicity ([5]; at at least one dose tested): protected primary neurons from LPS-stimulated inflammatory toxicity | neurite length / extension of neurites (in words) (Rat hippocampal neurons [4]): promoted the extension of neurites | Significant increase in: Neurite length (Rat hippocampal neurons [4]; 10 nM, Table 3 study): ++++ (++++ = p < 0.0001) | Significant reduction in IL-1β ([6]; 0.1 nM): NS | Significant reduction in IL-6 ([6]; 0.1 nM): NS | Significant reduction in TNF-α ([6]; 0.1 nM): NS | Significant reduction in IL-1β ([6]; 10 nM): ++ (indicates a p value<0.01 in Tukey post test) | Significant reduction in IL-6 ([6]; 10 nM): + (indicates a p value<0.05 in Tukey post test) | Significant reduction in TNF-α ([6]; 10 nM): + (indicates a p value<0.05 in Tukey post test) | Significant reduction in IL-1β ([6]; 1000 nM): + (indicates a p value<0.05 in Tukey post test) | Significant reduction in IL-6 ([6]; 1000 nM): ++ (indicates a p value<0.01 in Tukey post test) | Significant reduction in TNF-α ([6]; 1000 nM): ++ (indicates a p value<0.01 in Tukey post test) | expression of IL-1β (in words) ([6]; at at least one tested dose): significantly reduced the expression of IL-1β and TNF-α | expression of IL-6 (in words) ([6]; at at least one tested dose): significantly reduced the expression of IL-6 | expression of TNF-α (in words) ([6]; at at least one tested dose): significantly reduced the expression of IL-1β and TNF-α

HGF: hepatocyte growth factor, used as a positive control at 5 ng/ml
synapse counts (in words) (Rat hippocampal neurons [7]): increase both neurite length and synapse count | Significant increase in: Synapses (Rat hippocampal neurons [7]; 5 ng/ml, Table 4 study): ++++ (++++ = p < 0.0001) | neurite length / extension of neurites (in words) (Rat hippocampal neurons [4]): increase both neurite length and synapse count | Significant increase in: Neurite length (Rat hippocampal neurons [4]; 5 ng/ml, Table 4 study): +++ (+++ = p < 0.0005)

CC12CC3CC(C)(C1)CC(N)(C3)C2 [Memantine, reference compound]
Recovery (%) ([8]; 0.1 mg/kg i.p. 14 days): 76% | Spontaneous alternation (%) Mean ([8]; 0.1 mg/kg i.p. 14 days): 63.6% | Spontaneous alternation (%) Mean ([8]; 0.1 mg/kg i.p. 14 days, listed as memantine): 64% | Recovery (%) ([8]; 1 mg/kg i.p. 14 days): 38% | Spontaneous alternation (%) Mean ([8]; 1 mg/kg i.p. 14 days): 54.3% | Spontaneous alternation (%) Mean ([8]; 1 mg/kg i.p. 14 days, listed as memantine): 54% | significance of reversal of LPS-induced cognitive deficit (in words) ([8]; T-maze): significant at both doses
